Measurements published in patent US11266643B2, “Triaryl compounds for treatment of PD-L1 diseases” (CHEMOCENTRYX, INC., priority 2019, dated 2022).

Target: human PD-L1 (Homo sapiens (Human), UniProt Q9NZQ7)
Assay: Enzyme-Linked Immunosorbent Assay (ELISA), PD-1/PD-L1 binding
Experimental: 96 Well plates were coated with […] of human PD-L1 (obtained from R&D) in PBS overnight at 4° C. The wells were then blocked with 2% BSA in PBS (W/V) with 0.05% TWEEN-20 for 1 hour at 37° C. The plates were washed 3 times with PBS/0.05% TWEEN-20 and the compounds were serial diluted (1:5) in dilution medium and added to the ELISA plates. Human PD-1 […] 0.31 μg/mL (ACRO Biosystems) were added and incubated for 1 hour at 37° C. then washed 3 times with PBS/0.05% TWEEN-20. A second block was performed with 2% BSA in PBS (W/V)/0.05% TWEEN-20 for 10 min at 37° C. and the plates were washed 3 times with PBS/0.05% TWEEN-20. Streptavidin-HRP was added for 1 hour at 37° C. then the plates were washed 3 times with PBS/0.05% TWEEN-20. TMB substrate was added and reacted for 20 min at 37° C. A stop solution (2 N aqueous H2SO4) was added. The absorbance was read at 450 nm using a micro-plate spectrophotometer.
Using the methods described in the Examples above, the compounds in Table 2 were prepared & tested for biological activity using the ELISA method described above.

[1] = PD-1/PD-L1 ELISA, human PD-L1 coated plates, Table 1
[2] = human PD-1/PD-L1 ELISA, plates coated with human PD-L1
[3] = plate-coated human PD-L1, biotinylated Human PD-1, absorbance at 450 nm

human PD-L1, sequence (Q9NZQ7 19-239): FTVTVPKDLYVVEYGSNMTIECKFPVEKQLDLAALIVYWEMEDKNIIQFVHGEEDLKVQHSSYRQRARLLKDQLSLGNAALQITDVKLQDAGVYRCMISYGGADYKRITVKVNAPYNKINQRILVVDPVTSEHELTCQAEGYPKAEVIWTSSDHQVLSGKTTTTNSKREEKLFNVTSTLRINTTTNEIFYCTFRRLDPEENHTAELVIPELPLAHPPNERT

IC50 [1]	IC50 [2]	Compound	other results
10 to 1000 nM	–	COc1cc(-c2cccc(-c3cccc(NC(=O)c4cccn(CC(N)=O)c4=O)c3C)c2C)cc(F)c1CN [Example 1.288]	–
–	< 10 nM	COc1cc(-c2cccc(-c3cccc(NC(=O)c4cn(C)c(=O)n(C)c4=O)c3C)c2C)cc(F)c1CNC1CCNC(=O)C1 (stereo not drawn) [Example 1.093]	–
< 10 nM	–	COc1cc(-c2cccc(-c3cccc(NC(=O)c4cccn(C)c4=O)c3C)c2C)cc(F)c1CN1CC(C(=O)O)C1 [Example 1.301]	–
–	< 10 nM	COc1cc(-c2cccc(-c3cccc(NC(=O)c4cncn(C)c4=O)c3C)c2C)cc(F)c1CN(C)CCO [Example 1.176]	–
–	< 10 nM	COc1cc(-c2cccc(-c3cccc(NC(=O)c4cccn(C)c4=O)c3C)c2C)cc(F)c1CN(C)C[C@@H]1CCC(=O)N1 [Example 1.167]	–
1000 to 10000 nM	–	COc1cc(-c2cccc(-c3cccc(NC(=O)c4cccn(CC(=O)O)c4=O)c3C)c2C)cc(F)c1CN [Example 1.291]	–
–	< 10 nM	COc1cc(-c2cccc(-c3cccc(NC(=O)c4c[nH]c(=O)n(C)c4=O)c3C)c2C)cc(F)c1CNCC1CCCNC1=O (stereo not drawn) [Example 1.100]	–
–	< 10 nM	COc1cc(-c2cccc(-c3cccc(NC(=O)c4cn(C)c(=O)n(C)c4=O)c3C)c2C)cc(F)c1CN[C@@H]1CCOC1 [Example 1.038]	–
–	< 10 nM	COc1cc(-c2cccc(-c3cccc(NC(=O)c4c[nH]c(=O)n(C)c4=O)c3C)c2C)cc(F)c1CNCCC1CNC(=O)C1 (stereo not drawn) [Example 1.086]	–
< 10 nM	–	COc1cc(-c2cccc(-c3cccc(NC(=O)c4cccn(CCO)c4=O)c3C)c2C)cc(F)c1CN1CC(C(=O)O)C1 [Example 1.277]	–
< 10 nM	–	COc1cc(-c2cccc(-c3cccc(NC(=O)c4cncn(C)c4=O)c3C)c2C)cc(F)c1CN(C)CCC(=O)O [Example 1.268]	–
< 10 nM	–	COc1cc(-c2cccc(-c3cccc(NC(=O)c4cncn(C)c4=O)c3C)c2C)cc(F)c1CNC1CCC1 [Example 1.202]	–
–	< 10 nM	COc1cc(-c2cccc(-c3cccc(NC(=O)c4cncn(C)c4=O)c3C)c2C)cc(F)c1CNCC1CCNC(=O)C1 (stereo not drawn) [Example 1.051]	–
–	< 10 nM	COc1cc(-c2cccc(-c3cccc(NC(=O)c4cn(C)c(=O)n(C)c4=O)c3C)c2C)cc(F)c1CNC1CCOC1 (stereo not drawn) [Example 1.162]	–
–	< 10 nM	COc1cc(-c2cccc(-c3cccc(NC(=O)c4cncn(C)c4=O)c3C)c2C)cc(F)c1CNC[C@@H]1CCC(=O)N1C [Example 1.195]	–
–	< 10 nM	COc1cc(-c2cccc(-c3cccc(NC(=O)c4cn(C)c(=O)n(C)c4=O)c3Cl)c2C)cc(F)c1CNCC(C)(C)C(N)=O [Example 1.032]	–
< 10 nM	–	COc1cc(-c2cccc(-c3cccc(NC(=O)c4c[nH]c(=O)n(C)c4=O)c3C)c2C)cc(F)c1CN(C)CCO [Example 1.220]	–
–	< 10 nM	COc1cc(-c2cccc(-c3cccc(NC(=O)c4cn(C)c(=O)n(C)c4=O)c3C)c2C)cc(F)c1CNC(C)(C)CO [Example 1.133]	–
< 10 nM	–	COc1cc(-c2cccc(-c3cccc(NC(=O)c4c[nH]c(=O)n(C)c4=O)c3C)c2C)cc(F)c1CN1CC(O)C1 [Example 1.271]	–
–	< 10 nM	COc1cc(-c2cccc(-c3cccc(NC(=O)c4cn(C)c(=O)n(C)c4=O)c3C)c2C)cc(F)c1CNCCN1CCCC1=O [Example 1.118]	–
< 10 nM	–	COc1cc(-c2cccc(-c3cccc(NC(=O)c4cccn(C)c4=O)c3C)c2C)cc(F)c1CNCC(C)(C)O [Example 1.281]	–
–	< 10 nM	COc1cc(-c2cccc(-c3cccc(NC(=O)c4cn(C)c(=O)n(C)c4=O)c3C)c2C)cc(F)c1CNC1CCOCC1 [Example 1.052]	–
–	< 10 nM	COc1cc(-c2cccc(-c3cccc(NC(=O)c4cncn(C)c4=O)c3C)c2C)cc(F)c1CNC(C)(C)CO [Example 1.151]	–
< 10 nM	–	COc1cc(-c2cccc(-c3cccc(NC(=O)c4cncn(C)c4=O)c3C)c2C)cc(F)c1CN[C@H](C)CO [Example 1.204]	–
10 to 1000 nM	–	COc1cc(-c2cccc(-c3cccc(NC(=O)c4ccccn4)c3C)c2C)cc(F)c1CNCC(=O)O [Example 1.385]	–
–	< 10 nM	COc1cc(-c2cccc(-c3cccc(NC(=O)c4cn(C)c(=O)n(C)c4=O)c3C)c2C)cc(F)c1CN[C@@H]1CCOC[C@H]1O [Example 1.012]	–
10 to 1000 nM	–	COc1cc(-c2cccc(-c3cccc(NC(=O)c4c[nH]c(=O)n(C)c4=O)c3C)c2C)cc(F)c1CN(C)CCC(=O)O [Example 1.247]	–

The next lines start with the molecule.

Compound	IC50 [1]	IC50 [2]	other results
COc1cc(-c2cccc(-c3cccc(NC(=O)c4cn(C)c(=O)n(C)c4=O)c3C)c2Cl)cc(F)c1CN[C@@H]1CCOC[C@H]1O [Example 2.102]	–	–	IC50 [3]: < 10 nM
COc1cc(-c2cccc(-c3cccc(Nc4nccc5nccnc45)c3C)c2C)cc(F)c1CN1CC(C(=O)O)C1 [Example 1.273]	< 10 nM	–	–
COc1cc(-c2cccc(-c3cccc(NC(=O)c4ccccn4)c3C)c2C)cc(F)c1CN1CC[C@H](C(=O)O)C1 [Example 1.368]	10 to 1000 nM	–	–
COc1cc(-c2cccc(-c3cccc(NC(=O)c4ccccn4)c3C)c2C)cc(F)c1CN1CCC2(C1)NC(=O)NC2=O (stereo not drawn) [Example 1.362]	10 to 1000 nM	–	–
COc1cc(-c2cccc(-c3cccc(Nc4nccc5nccnc45)c3C)c2Cl)cc(F)c1CNCC(C)(C)O [Example 2.112]	–	–	IC50 [3]: < 10 nM
COc1cc(-c2cccc(-c3cccc(NC(=O)c4cn(C)c(=O)n(C)c4=O)c3C)c2Cl)cc(F)c1CN1CC(C(=O)O)C1 [Example 2.046]	–	–	IC50 [3]: < 10 nM
COc1cc(-c2cccc(-c3cccc(NC(=O)c4cc(N)ncn4)c3C)c2C)cc(F)c1CN1CC(C(=O)O)C1 [Example 1.320]	< 10 nM	–	–
COc1cc(-c2cccc(-c3cccc(NC(=O)c4ccc(CC(=O)O)cn4)c3C)c2C)cc(F)c1CN [Example 1.335]	10 to 1000 nM	–	–
COc1cc(-c2cccc(-c3cccc(NC(=O)c4c[nH]c(=O)n(C)c4=O)c3C)c2C)cc(F)c1CN1CCC(N)C1 (stereo not drawn) [Example 1.228]	10 to 1000 nM	–	–
COc1cc(-c2cccc(-c3cccc(NC(=O)c4cncc(N)n4)c3C)c2C)cc(F)c1CN1CC(C(=O)O)C1 [Example 1.327]	< 10 nM	–	–
COc1cc(-c2cccc(-c3cccc(NC(=O)c4cn(C)c(=O)n(C)c4=O)c3C)c2C)cc(F)c1CN[C@H]1CCOC[C@@H]1O [Example 2.096]	–	–	IC50 [3]: < 10 nM
COc1cc(-c2cccc(-c3cccc(NC(=O)c4cn(C)c(=O)n(C)c4=O)c3Cl)c2Cl)cc(F)c1CN[C@H]1CCOC[C@H]1OC [Example 2.025]	–	–	IC50 [3]: < 10 nM
COc1cc(-c2cccc(-c3cccc(NC(=O)c4cn(C)c(=O)n(C)c4=O)c3C)c2Cl)cc(F)c1CNCC1(C(N)=O)CC1 [Example 2.059]	–	–	IC50 [3]: < 10 nM
COc1cc(-c2cccc(-c3cccc(NC(=O)c4cn(C)c(=O)n(C)c4=O)c3C)c2Cl)cc(F)c1CN(C)[C@@H]1CCOC[C@@H]1O [Example 2.062]	–	–	IC50 [3]: < 10 nM
COc1cc(-c2cccc(-c3cccc(NC(=O)c4cn(C)c(=O)n(C)c4=O)c3Cl)c2C)cc(F)c1CNC[C@@H]1CCC(=O)N1 [Example 1.030]	–	< 10 nM	–
COc1cc(-c2cccc(-c3cccc(NC(=O)C4CCCO4)c3C)c2C)cc(F)c1CN[C@@](C)(CO)C(=O)O (stereo partly drawn) [Example 1.336]	1000 to 10000 nM	–	–
CCOc1cc(-c2cccc(-c3cccc(NC(=O)c4cn(C)c(=O)n(C)c4=O)c3Cl)c2Cl)cc(F)c1CN[C@H]1CCC(=O)NC1 [Example 2.036]	–	–	IC50 [3]: < 10 nM
COc1cc(-c2cccc(-c3cccc(NC(=O)c4nn(C)c(=O)n(C)c4=O)c3C)c2C)cc(F)c1CN[C@@H]1CCC(=O)NC1 [Example 1.069]	–	< 10 nM	–
COc1cc(-c2cccc(-c3cccc(NC(=O)c4cn(C)c(=O)n(C)c4=O)c3C)c2Cl)cc(F)c1CN[C@@H]1CNC(=O)C1 [Example 1.035]	–	< 10 nM	–
COc1cc(-c2cccc(-c3cccc(NC(=O)c4cn(C)c(=O)n(C)c4=O)c3Cl)c2C)cc(F)c1CN[C@@H]1CCOC[C@@H]1O [Example 1.010]	–	< 10 nM	–
COc1cc(-c2cccc(-c3cccc(NC(=O)N4CCNCC4)c3C)c2C)cc(F)c1CN [Example 1.392]	10 to 1000 nM	–	–
COc1cc(-c2cccc(-c3cccc(NC(=O)c4c[nH]c(=O)n(C)c4=O)c3Cl)c2Cl)cc(F)c1CN[C@H]1CCOC[C@H]1OC [Example 2.022]	–	–	IC50 [3]: < 10 nM
COc1cc(-c2cccc(-c3cccc(NC(=O)c4cn(C)c(=O)n(C)c4=O)c3C)c2Cl)cc(F)c1CN[C@@H]1CCC(=O)NC1 [Example 2.101]	–	–	IC50 [3]: < 10 nM
COc1cc(-c2cccc(-c3cccc(NC(=O)c4cn(C)c(=O)n(C)c4=O)c3C)c2F)cc(F)c1CN[C@H]1CCOC[C@@H]1O [Example 2.095]	–	–	IC50 [3]: < 10 nM
COc1cc(-c2cccc(-c3cccc(Nc4nccc5nccnc45)c3Cl)c2Cl)cc(F)c1CN[C@@H]1COC[C@@H]1O [Example 2.110]	–	–	IC50 [3]: < 10 nM
COc1cc(-c2cccc(-c3cccc(NC(=O)c4cnc(C(=O)O)cn4)c3C)c2C)cc(F)c1CN [Example 1.322]	< 10 nM	–	–
COc1cc(-c2cccc(-c3cccc(NC(=O)c4ccc(C(=O)NCCO)cn4)c3C)c2C)cc(F)c1CN1CC(C(=O)O)C1 [Example 1.285]	< 10 nM	–	–
COc1cc(-c2cccc(-c3cccc(Nc4cncc5nccnc45)c3C)c2C)cc(F)c1CNC[C@@H]1CCC(=O)N1 [Example 1.048]	–	< 10 nM	–
COc1cc(-c2cccc(-c3cccc(Nc4ccnc5nccnc45)c3C)c2C)cc(F)c1CN1CC(C(=O)O)C1 [Example 1.245]	< 10 nM	–	–
COc1cc(-c2cccc(-c3cccc(NC(=O)c4nn(C)c(=O)n(C)c4=O)c3C)c2C)cc(F)c1CNCc1c[nH]c(=O)[nH]c1=O [Example 1.054]	–	< 10 nM	–
